# Assay results published in PubChem BioAssay AID2060906 (Molecular Pharmacology Branch, DTP, NCI, 2025).
# Tested on: 485176-168-R4-J1-PDC complex spheroid growth
# Assay: Anticancer human tumor 485176-168-R4-J1-PDC patient-derived pancreatic adenocarcinoma cell line growth inhibition [RAS]
# Details: for viability, T/C: stronger effect = lower value
# Text: RAS pathway inhibitors in Combinations in Complex Spheroids
# A high-throughput screen of multi-cell type tumor spheroids was designed to identify active combinations of RAS pathway inhibitors and targeted small molecules. Complex spheroids include a stromal component modeled by human endothelial cells (HUVEC) and fibroblasts modeled by human mesenchymal stem cells (MSCs). The concentration ranges selected for each drug and investigational agent were based upon clinically achievable concentrations if the clinical Cmax of the agent was known.
# Compounds. The drugs and investigational agents: abemaciclib (NSC768073), cobimetinib (NSC768068), divarasib (GDC6063, NSC841802), docetaxel (NSC628503), GDC-1971 (RLY-1971, NSC841576), gemcitabine (NSC613327), inavolisib (NSC800729), ipatasertib (NSC767898), KB-0742 (NSC834161), MRTX-1133 (NSC836407), osimertinib (NSC779217), RMC-4630 (NSC839698), RMC-6236 (NSC851965), RMC-6291 (NSC852671), Ro-3306 (NSC812927), sapanisertib (NSC764658), SN-38 (NSC673596), staurosporine (NSC755774), SY5609 (NSC837396), and tovorafenib (DAY101, NSC766906), were obtained from the National Cancer Institute (NCI) Developmental Therapeutics Program Chemical Repository. The FDA-approved anticancer drug set is available from the NCI Developmental Therapeutics Program. […] The stock solutions were prepared in dimethyl sulfoxide (DMSO, Sigma-Aldrich, St. Louis, MO, cat. D2650) at 800-fold the tested concentration and stored at -70 degrees C prior to their use. All drugs and investigational agents were tested over a range starting from a high concentration at or near the clinical Cmax and decreasing in half-log increments. If the clinical Cmax for an agent had not been determined, the highest concentration tested was 10 microM.
# Cell Culture. All cells were maintained in an incubator at 37 degrees C and 5% CO2 with 95% humidity. The PDC lines were cultured according to standard operating procedures established by the NCI PDMR. All PDCs were thawed and cultured in Matrigel-coated flasks prepared with a working solution of 1X Ham's F-12 nutrient mix, without supplementation (Invitrogen, Waltham, MA, cat. 11765054), 100 U/mL penicillin-streptomycin (Invitrogen, cat. 15140122), and 2.5% Matrigel (Corning Inc., Corning, NY, cat. 354248) for the first three passages. The 362531-283-R-J2-PDC and 782815-120-R-J1-PDC lines were cultured in 6C/Colon 1B media, which includes advanced DMEM/F-12 (Thermo Fisher Scientific, cat. 12634028), 10 mM HEPES (Thermo Fisher Scientific, cat. 15630080), 1X GlutaMAX supplement (Thermo Fisher Scientific, cat. 35050061), 0.1 mg/mL primocin (InvivoGen, San Diego, CA, cat. ant-pm-2), 10% defined fetal bovine serum, heat inactivated (HyClone Laboratories Inc., Logan, UT, cat. SH30070.03HI), 50% L-WRN conditioned media (ATCC, cat. CRL-3276), 1.25 mM N-Acetyl-L-cysteine (Sigma-Aldrich, cat. A9165), 10 mM nicotinamide (Sigma-Aldrich, cat. N0636), 1X B-27 supplement (Thermo Fisher Scientific, cat. 17504044), 1X N-2 supplement (Thermo Fisher Scientific, cat. 17502048), 50 ng/mL human EGF (Thermo Fisher Scientific, cat. PHG0311), and 10 microM Y-27632 dihydrochloride (Tocris Bioscience, cat. 1254). The K12877-001-R-J1-PDC line was cultured in 6I media, which includes all 6C/Colon 1B media plus 10 ng/mL human FGF-10 (PeproTech, cat. 100-26), 1 ng/mL human FGF-2 (PeproTech, cat. 100-18B), 1 µM prostaglandin E2 (Tocris Bioscience, cat. 2296), […] hydrocortisone (Sigma-Aldrich, cat. H4001), and […] bovine insulin (Sigma-Aldrich, cat. I6634). The K86415-001-R-J1-PDC line was cultured in 6D media, which includes all 6C/Colon 1B media components minus the L-WRN conditioned media. The 485176-168-R4-J1-PDC was cultured in PANC media, which includes all 6C/Colon 1B media plus 100 ng/mL human FGF-10 (PeproTech, cat. 100-26), 500 nM SB-431542 (Selleckchem, cat. S1067), and 10 nM gastrin (Tocris Bioscience, cat. 3006). […]
# 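Also: spheroids exposed to compounds for seven days before readout.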
# 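For viability, T/C in this document: luminescence viability expressed relative to DMSO vehicle wells set as 100%.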
compound,measurement,setting,value
O=C(c1ccc(F)c(F)c1Nc1ccc(I)cc1F)N1CC(O)([C@@H]2CCCCN2)C1 + CCn1c(-c2cccnc2C(C)OC)c2c3cc(ccc31)N1CCOC(CC(NC(=O)C(C(C)C)N(C)C(=O)C3(F)CCN(C(=O)C#CC(C)(C)N(C)C)CC3)C(=O)N3CCCC(N3)C(=O)OCC(C)(C)C2)C1,IC50,"curve of first compound, second compound 0.000949 µM",349 nM
same,IC50,"curve of first compound, second compound 0.003 µM",409 nM
same,IC50,"curve of first compound, second compound 0.00949 µM",154 nM
same,IC50,"curve of first compound, second compound 0.03 µM",235 nM
same,IC50,"curve of first compound, second compound 0.0949 µM",142 nM
same,IC50,"curve of first compound, second compound 0.3 µM",32.6 nM
same,"viability, T/C","second compound 0.000949 µM, first compound 0.00316 µM",90.4%
same,"viability, T/C","second compound 0.000949 µM, first compound 0.01 µM",79%
same,"viability, T/C","second compound 0.000949 µM, first compound 0.0316 µM",86.3%
same,"viability, T/C","second compound 0.000949 µM, first compound 0.1 µM",61.4%
same,"viability, T/C","second compound 0.000949 µM, first compound 0.316 µM",53.8%
same,"viability, T/C","second compound 0.000949 µM, first compound 1 µM",39.9%
same,"viability, T/C","second compound 0.003 µM, first compound 0.00316 µM",79.3%
same,"viability, T/C","second compound 0.003 µM, first compound 0.01 µM",65.8%
same,"viability, T/C","second compound 0.003 µM, first compound 0.0316 µM",73.2%
same,"viability, T/C","second compound 0.003 µM, first compound 0.1 µM",58%
same,"viability, T/C","second compound 0.003 µM, first compound 0.316 µM",50.9%
same,"viability, T/C","second compound 0.003 µM, first compound 1 µM",43.7%
same,"viability, T/C","second compound 0.00949 µM, first compound 0.00316 µM",77.8%
same,"viability, T/C","second compound 0.00949 µM, first compound 0.01 µM",85.8%
same,"viability, T/C","second compound 0.00949 µM, first compound 0.0316 µM",68.6%
same,"viability, T/C","second compound 0.00949 µM, first compound 0.1 µM",55%
same,"viability, T/C","second compound 0.00949 µM, first compound 0.316 µM",43.4%
same,"viability, T/C","second compound 0.00949 µM, first compound 1 µM",36%
same,"viability, T/C","second compound 0.03 µM, first compound 0.00316 µM",97.1%
same,"viability, T/C","second compound 0.03 µM, first compound 0.01 µM",89.8%
same,"viability, T/C","second compound 0.03 µM, first compound 0.0316 µM",69.3%
same,"viability, T/C","second compound 0.03 µM, first compound 0.1 µM",51.9%
same,"viability, T/C","second compound 0.03 µM, first compound 0.316 µM",56.7%
same,"viability, T/C","second compound 0.03 µM, first compound 1 µM",36.7%
same,"viability, T/C","second compound 0.0949 µM, first compound 0.00316 µM",89.7%
same,"viability, T/C","second compound 0.0949 µM, first compound 0.01 µM",64.1%
same,"viability, T/C","second compound 0.0949 µM, first compound 0.0316 µM",68.6%
same,"viability, T/C","second compound 0.0949 µM, first compound 0.1 µM",53.6%
same,"viability, T/C","second compound 0.0949 µM, first compound 0.316 µM",44.2%
same,"viability, T/C","second compound 0.0949 µM, first compound 1 µM",32.3%
same,"viability, T/C","second compound 0.3 µM, first compound 0.00316 µM",67.2%
same,"viability, T/C","second compound 0.3 µM, first compound 0.01 µM",70.8%
same,"viability, T/C","second compound 0.3 µM, first compound 0.0316 µM",50.2%
same,"viability, T/C","second compound 0.3 µM, first compound 0.1 µM",45.6%
same,"viability, T/C","second compound 0.3 µM, first compound 0.316 µM",40%
same,"viability, T/C","second compound 0.3 µM, first compound 1 µM",39.5%
Nc1ccn(C2OC(CO)C(O)C2(F)F)c(=O)n1 (configuration not stated),"viability, T/C",compound 0.00316 µM,97.3% [middle of 4 runs]
same,"viability, T/C",compound 0.0316 µM,17.7% [middle of 4 runs]
same,"viability, T/C",compound 0.1 µM,9.63% [middle of 4 runs]
same,"viability, T/C",compound 0.316 µM,9.78% [middle of 4 runs]
same,"viability, T/C",compound 1 µM,12.4% [middle of 4 runs]
same,IC50,curve of compound,16.7 nM [middle of 4 runs]
CCn1c(-c2cc(N3CCN(C)CC3)cnc2C(C)OC)c2c3cc(ccc31)-c1csc(n1)CC(NC(=O)C1CC1C)C(=O)N1CCCC(N1)C(=O)OCC(C)(C)C2 (configuration not stated),"viability, T/C",compound 0.000949 µM,102% [middle of 8 runs]
same,"viability, T/C",compound 0.003 µM,102% [middle of 8 runs]
same,"viability, T/C",compound 0.00949 µM,92.2% [middle of 8 runs]
same,IC50,"compound alone, run of 05/20/2024",> 300 nM
